How the values were obtained:
[1] = molecular target: T1, mTORC2 (Homo sapiens, UniProt P42345); assay: LocaTOR2 assay in A549 cells (FRB-AKT2 Ser473 phosphorylation); assay type: cell-based; design: endogenous in cells; host or cells: A549 (transfected only with the FKBP-recruiter and the FRB-AKT2 reporter); details: A549, KRas4B^C30-FKBP recruiter, AP21967; norathyriol at 30 μM and 60 μM; FIG. 9a
From the text: mTORC2 is located in the cell membrane, endosome, ER and mitochondrial membrane. mTORC2 forms an mTORC2 complex as an activated form of ras (ras-GTP) operates as a scaffold in the cell membrane, whereas it forms an mTORC2 complex as mLST8 operates as a scaffold in the endosome. By this difference, the mTORC2 inhibitory effect of norathyriol may be shown differently depending on the subcellular compartment where mTORC2 is located. In order to investigate the mTORC2 inhibitory effect of norathyriol depending on the subcellular compartment location, in vivo LocaTOR2 assay was performed (Ebner et al. (2017) J. Cell Biol. 216:343-353). After introducing FKBP-recruiter selectively located in the membrane of the subcellular compartment and FRB^T2098L-AKT2 which is an mTORC2 substrate, AP21967 was treated for 40 minutes to induce binding between the FKBP-recruiter and FRB-AKT2, and FRB-AKT2 was moved to a specific subcellular compartment. In addition, the degree of phosphorylation of Ser473 of FRB-Akt by mTORC2 located in the site thereof was investigated by immunoblot analysis.

[2] = molecular target: T1, mTORC2; assay: In vitro mTORC2 kinase assay (GST-Akt Ser473 phosphorylation, immunoblot); assay type: biochemical; design: mTORC was isolated by co-immunoprecipitation using Flag antibody; made in house; host or cells: HEK 293T transfected with Flag-mLST8; details: assay validation with dual mTOR inhibitor
Protocol: After introducing Flag-mLST8 into a human cell line 293T, mTORC was isolated by co-immunoprecipitation using Flag antibody. In the in vitro mTORC2 kinase assay, the activity of the isolated mTORC2 was evaluated by measuring phosphorylation of GST-Akt Ser473, which is a selective substrate of mTORC2 by immunoblot analysis. In the control group in which Flag-mLST8 was not introduced, GST-Akt Ser473 phosphorylation was almost not measured. […] Therefore, it was judged that GST-Akt Ser473 phosphorylation measured in the in vitro mTORC2 kinase assay was generated by mTORC2. In order to evaluate the inhibitory effect of norathyriol and athyriol on mTORC2 activity, norathyriol or athyriol was pretreated for 15 minutes, and then in vitro mTORC2 kinase assay was carried out.
More specifically, the HEK 293T cells were cultured in a DMEM culture medium in which 10% heat inactivated FBS+1× Glutamax was added. 8×10^5 HEK 293T cells were seeded in a 100 mm culture dish, and then they were cultured for 1 day. After mixing 42 μl Lipofectamine, 21 μl plus reagent, and 21 μg Flag-mLST8 plasmid DNA to 1 ml OPTI-MEM, it was shaken at a room temperature for 25 minutes to prepare a transfection DNA mixture. The transfection DNA mixture was slowly treated on the cells drop by drop, and after culturing for 5 hours, the culture medium was replaced with a new culture medium. After additional culturing for 48 hours, the cells were […] with CHAPS buffer (50 mM HEPES (pH7.4), 100 mM NaCl, 2 mM EDTA, 0.3% CHAPS, 10 mM sodium pyrophosphate, 10 mM sodium β-glycerophosphate, 1 mM PMSF, 1 μg/ml leupeptin, 1 μg/ml pepstatin A, 10 nM aprotinin, 1 mM Na3VO4, 10 nM calyculin A), and centrifuged at 4° C. at 13,000 rpm for 10 minutes to obtain the supernatant and acquire cell lysate. The protein concentration of the cell lysate was determined with BCA protein assay kit (Thermo Fisher Scientific). After adding anti-Flag M2 affinity gel (50% slurry, Sigma) of 30 μl to the cell lysate of 1 mg, it was shaken at 4° C. for 3 hours. After that, affinity gel was washed with CHAPS buffer 3 times and kinase buffer (50 mM HEPES (pH7.5), 2 mM DTT, 10 mM MnCl2, 10 mM MgCl2) for washing once. After adding kinase buffer [-substrate-ATP] […] After that, kinase buffer (50 mM HEPES (pH7.5), 2 mM DTT, 10 mM MgCl2, 10 mM MnCl2, 1 mM ATP, 500 ng GST-AKT, 10 nM calyculin A) of 10 μl was added and shaken at 30° C. for 45 minutes to progress a kinase reaction. […] Ser473 phosphorylation of GST-AKT, which is a substrate of mTORC2, was measured by performing immunoblot analysis using AKT antibody (#4691, Cell signaling) and phospho Ser473 AKT antibody (#4060, Cell signalig). In order to measure the mTORC2 activity inhibitory effect by the compound, both the kinase buffer [-substrate-ATP] and the kinase buffer included the compound.

[3] = molecular target: T2, mTORC1 (Homo sapiens, UniProt P42345); assay: In vitro mTORC1 kinase assay (GST-S6K Thr389 phosphorylation, immunoblot); assay type: biochemical; details: assay validation with dual mTOR inhibitor
T2 construct: mTORC1 was isolated by co-immunoprecipitation using Flag antibody; made in house; host or cells: HEK 293T transfected with Flag-Raptor
Protocol: In order to investigate the effect on mTORC1 activity of norathyriol, in vitro mTORC1 kinase assay was performed. After introducing Flag-Raptor into a human cell line 293T, mTORC1 was isolated by co-immunoprecipitation using Flag antibody. In addition, the activity of the isolated mTORC1 complex was evaluated by measuring phosphorylation of GST-S6K Thr389, which is a selective substrate of mTORC1, by immunoblot analysis. In the control group in which Flag-Raptor was not introduced, GST-S6K Thr389 phosphorylation was almost not measured. […] Therefore, it was judged that GST-S6K Thr389 phosphorylation measured in the in vitro mTORC1 kinase assay was generated by mTORC1. In order to evaluate the inhibitory effect of norathyriol on mTORC1 activity, norathyriol was pretreated for 15 minutes, and then in vitro mTORC1 kinase assay was carried out.
More specifically, the HEK 293T cells were cultured in a DMEM culture medium in which 10% heat inactivated FBS+1× Glutamax was added. 8×10^5 HEK 293T cells were seeded in a 100 mm culture dish, and then they were cultured for 1 day. After mixing 42 μl Lipofectamine, 21 μl plus reagent, and 21 μg Flag-Raptor plasmid DNA to 1 ml OPTI-MEM, it was shaken at a room temperature for 25 minutes to prepare a transfection DNA mixture. The transfection DNA mixture was slowly treated on the cells drop by drop, and after culturing for 5 hours, the culture medium was replaced with a new culture medium. […] The protein concentration of the cell lysate was determined with BCA protein assay kit (Thermo Fisher Scientific). […] Thr389 phosphorylation of GST-S6K1, which is a substrate of mTORC1, was measured by performing immunoblot analysis using phospho Thr389 p70 S6 kinase antibody (#9205S, Cell Signaling) and GST antibody (#A190-122A, Bethyl Laboratories). […]

[4] = system: Arc protein expression; assay: mGluR-dependent Arc protein expression in cerebral neurons; assay type: cell-based; details: DHPG alone; FIG. 12a
Protocol: When mGluR is activated in dendritic spines of cerebral neurons, Arc protein is synthesized, and the Arc protein promotes endocytosis of an AMPA receptor to form LTD.
Specifically, DHPG was treated to cerebral neurons, which were obtained by primary culture of white mouse embryo E16 cerebral regions and differentiated for […] (DIV21), for 5 minutes or 10 minutes to activate mGluR. As an Arc antibody, Arc protein (green) and PSD95 (red), which is a marker antibody of postsynaptic density of a synapse, were under
After double immunofluorescent staining of Arc protein with an Arc antidody (green) and PSD95, a marker of postsynaptic density of synapse, with an PSD95 antibody (red), Arc expression in dendritic spines was quantified as the number of Arc+PSD95 double stained puncta per 20 μm neurite length by confocal scanning microscopic scanning.

[5] = molecular target: T3, mTORC2 located in late endosome of dendritic spines (Rattus norvegicus, UniProt P42346); assay: LocaTOR2 assay-immunofluorescent staining in primary cultured cerebral neurons (mGluR-dependent mTORC2 activation); assay type: cell-based; details: FIG. 11a
T3 construct: endogenous in cells; host or cells: primary cultured cerebral neurons from SD-rat E16 embryos, transduced by lentivirus only with mCherry-FRB-AKT2 and Rab7-FKBP
From the text: By combining Loca-TOR2 assay and immunofluorescence staining, changes in mTORC2 activity located in the late endosome during the induction process of long term depression (LTD) occurring in dendritic spines of primarily cultured cerebral neurons were investigated, and the inhibitory effect of norathyriol on these changes was investigated.
Specifically, mCherry-FRB-AKT2 and Rab7-FKBP were introduced using a lentiviral vector on the primarily cultured cerebral neuron on the DIV5 day, and AP21967 was treated on the DIV17 day to induce binding of FRB and FKBP, and thereby, mCherry-FRB-AKT2 was located in the late endosome. After that, DHPG, which is an mGluR agonist inducing long-term depression, was treated. […] In addition, by measuring Ser473 phosphorylation staining of mCherry-FRB-AKT2 overlapped with PSD-95 staining, which is a protein located in dendritic spines, by immunofluorescent staining, changes in mTORC2 activity located in the late endosome in the dendritic spines can be investigated. After staining using a phospho-Ser473 AKT antibody by immunofluorescent staining, the degree of AKT Ser473 phosphorylation was quantified by counting the number of each fluorescent puncta larger than 0.4 μm or more in size in the dendrites (green). In addition, the dendritic spines were observed by staining with PSD95 antibody (yellow), and the location of mCherry-FRB-AKT2 was investigated by observing mCherry fluorescence (cherry color).
SD-rat gestational age 16-day mice (Orient Bio) were purchased and the mice were anesthetized with CO2 and then embryos were taken out. Until the forebrain was isolated and the meninges were removed, it was performed by the same method as the hippocampal culture, and when the cerebrum was isolated, the dorsal cortex or ventral cortex was cut with a bended syringe needle, and it was collected in new HBSS. The tissue isolated and collected was transferred to a 15 ml tube with a Pasteur pipette, and then in order to remove the remaining meninges and blood vessels, and the like, 2 ml HBSS and 0.25% trypsin of 2 ml were added, and it was reacted in a 37° C. shaker for 10-15 minutes. The cells were settled and the supernatant was removed leaving 1-2 ml, and then trypsin was inactivated by adding DMEM comprising the equal amount of 20% FBS. After centrifugation at 700 rpm for 15 minutes, the supernatant was discarded all and the collected tissue was released, and then Neurobasal culture medium (+glutamate) of 2 ml was added, and titrated with a pipette, and the cells were isolated by changing to a pipette with a narrow end. […] The number of cells was measured with a hemocytometer, and then the cells were seeded in a coated culture dish. […]

| GST-Akt Ser473 phosphorylation [2] | GST-S6K Thr389 phosphorylation [3] | increase of Ser473 phosphorylation of mCherry-FRB-AKT2 located in late endosome of dendritic spines ([5]; after 5 minutes of treating DHPG) [%] | increase of Ser473 phosphorylation of mCherry-FRB-AKT2 located in late endosome of dendritic spines ([5]; after 10 minutes of treating DHPG) [%] | Structure (SMILES) | FRB-AKT2 Ser473 phosphorylation, mTORC2 located in cell membrane [1] | Arc synthesis in dendritic spines (immunofluorescent staining) [4] | Ser473 phosphorylation of mCherry-FRB-AKT2 located in late endosome of dendritic spines ([5]; after 20 minutes of treating DHPG) |
| --- | --- | --- | --- | --- | --- | --- | --- |
| mostly reduced | mostly reduced | – | – | COc1ccc(-c2ccc3c(N4CCOC[C@@H]4C)nc(N4CCOC[C@@H]4C)nc3n2)cc1CO [AZD8055, reference compound] | reduced the phosphorylation of FRB-AKT2 Ser473 to a level of the control group | – | – |
| – | – | 55 | 72 | NC(C(=O)O)c1cc(O)cc(O)c1 (stereo not shown) [DHPG, 3,5-dihydroxyphenylglycine] | – | increased up to 10 minutes after treating DHPG | reduced to the level of the control group |

From patent US20240366555A1, “SELECTIVE MTORC2 INHIBITOR AND USES THEREOF” (ALIAD BIOPHARMA, priority 2021, published 2024)
